According to US9606106B2, “NMR-based metabolite screening platform” (THE CHILDREN'S MEDICAL CENTER CORPORATION, priority 2012, dated 2017):

Test system: BPLER cells
Experiment: cell migration assay (dual-chamber with small pores)
Assay type: cell-based, human
Conditions: cells transfected with siRNAs against NANS or CMAS, supplemented with NANA
Protocol: However, NANA is incorporated on the cell surface of several proteins involved in cell adhesion, and loss of NANA was suspected to affect cell motility. Using a cell migration assay, cells were cultured in a dual-chamber containing small pores at the bottom of the top chamber, malignant cells (especially those with metastatic potential) are able to migrate through the pores and form colonies. As expected, shown in FIG. 12 BPLER have an increased migration rate as compared to HMLER cells due to their increased turmorigenic properties. […] To confirm NANA expression directly influences motility, a rescue experiment was performed in which cells transfected with siRNAs against NANS or CMAS were supplemented NANA. […] Monitoring NANA expression could predict the metastatic potential of a cell. In addition both NANS/CMAS are novel key targets to manipulate migration and metastasis.

CC(=O)N[C@H]1[C@H]([C@H](O)[C@H](O)CO)OC(O)(C(=O)O)C[C@@H]1O (stereo partly shown) [NANA, N-acetylneuraminic acid]
rescue of migration phenotype: partially restore
